Measurements from patent US20250313879A1, “Fluorescent Probe for Detecting Peptide Bond Hydrolase” (The University of Tokyo, priority 2022, published 2025).
Numbered stars: 1 amine (or outer) side, 2 acyl side, 3 side chain; on linkers, the order of the positions; unused ones are H or OH. Square brackets hold non-standard residues; d marks the D form. Peptide text beside a SMILES is read from it. * marks the point of attachment. X2 = Cc1ccc(S(=O)(=O)O)cc1C1=C2C=CC(=N)C=C2[Si](C)(C)c2cc(N*)ccc21; X1 = Nc1ccc2c(c1)Oc1cc(N*)ccc1C21OCc2cc(S(=O)(=O)O)ccc21; Suc = O=C(CCC(=O)[*:2])[*:1]

Key:
Format in all cases: biochemical
[1] = test system: peptidase activity in human plasma sample; assay: Enzyme activity assay in microdevice with human plasma, peptidase probes; conditions: 50 μM probe
Experimental: (§1) • 1. GP-sHMRG as a fluorescent probe for detecting peptidase activity was diluted with an assay buffer to 100 μM. The composition of the assay buffer is 100 mM HEPES-NaOH (pH 7.4), 1 mM MgCl2, 1 mM CaCl2, 1 mM DTT, 3 mM Triton X-100. • 2. Next, a human plasma sample was diluted by 2,500 times with the above assay buffer, and mixed in an equal amount with the diluted solution of the probe. At this time, the final concentrations of both are 50 μM for GP-sHMRG and 5,000 fold dilution for the human plasma sample. • 3. The mixed solution of both was then added to a microdevice, followed by the addition of sealing oil to enclose the solution in each well. • 4. The microdevice in which the solution was enclosed was incubated at 25° C. for 2 hours, and then the fluorescence intensity of each well was measured with a fluorescence microscope.
as §1, with “1. Ac-Ala-sHMRG” for “1. GP-sHMRG”, “by 250” for “by 2,500”, “for Ac-Ala-sHMRG” for “for GP-sHMRG”, “and 500” for “and 5,000”, “at 37°” for “at 25°”, “for 4” for “for 2”
• 1. Ac-GP-sSiR as a fluorescent probe for detecting peptidase activity was diluted with an assay buffer to 100 μM. The composition of the assay buffer is 100 mM HEPES-NaOH (pH 7.4), 1 mM MgCl2, 1 mM CaCl2, 1 mM DTT, 3 mM Triton X-100. • 2. […] The microdevice in which the solution was enclosed was incubated at 37° C. for 2 hours, and then the fluorescence intensity of each well was measured with a fluorescence microscope.

[2] = test system: protease activity in human plasma sample; assay: Enzyme activity assay in microdevice with human plasma, protease probes
Experimental: • 1. Suc-AAPA-sHMRG as a fluorescent probe for detecting protease activity was diluted with an assay buffer to 200 μM. The composition of the assay buffer is 100 mM HEPES-NaOH (pH 7.4), 1 mM MgCl2, 1 mM CaCl2, 1 mM DTT, 3 mM Triton X-100. • 2. Next, a human plasma sample was diluted by 250 times with the above assay buffer, and mixed in an equal amount with the diluted solution of the probe. At this time, the final concentrations of both are 100 μM for Suc-AAPA-sHMRG and 500 fold dilution for the human plasma sample. • 3. The mixed solution of both was then added to a microdevice, followed by the addition of sealing oil to enclose the solution in each well. • 4. The microdevice in which the solution was enclosed was incubated at 37° C. for 4 hours, and then the fluorescence intensity of each well was measured with a fluorescence microscope.
as §1, with “Ac-LRGG-sSiR” for “GP-sHMRG”, “protease” for “peptidase”, “10,000” for “2,500”, “20,000” for “5,000”, “37°” for “25°”
• 1. EP-sSiR as a fluorescent probe for detecting protease activity was diluted with an assay buffer to 60 μM. […] The microdevice in which the solution was enclosed was incubated at 25° C. for 2 hours, and then the fluorescence intensity of each well was measured with a fluorescence microscope.

[3] = test system: aminopeptidase activity in human plasma sample; assay: Enzyme activity assay in microdevice with human plasma, aminopeptidase probes; conditions: 50 μM probe
Experimental: • 1. Ala-sHMRG as a fluorescent probe for detecting aminopeptidase activity was diluted with an assay buffer to 100 μM. The composition of the assay buffer is 100 mM HEPES-NaOH (pH 7.4), 1 mM MgCl2, 0.1% BSA, 1 mM DTT, 1 mM Triton X-100, • 2. Next, a human plasma sample was diluted by 500 times with the above assay buffer, and mixed in an equal amount with the diluted solution of the probe. At this time, the final concentrations of both are 50 μM for Ala-sHMRG and 1,000 fold dilution for the human plasma sample. • 3. The mixed solution of both was then added to a microdevice, followed by the addition of sealing oil to enclose the solution in each well. • 4. The microdevice in which the solution was enclosed was incubated at 37° C. for 4 hours, and then the fluorescence intensity of each well was measured with a fluorescence microscope.
as §1, with “1. Leu-sHMRG” for “1. GP-sHMRG”, “detecting aminopeptidase” for “detecting peptidase”, “MgCl2,” for “MgCl2, 1 mM CaCl2,”, “for Leu-sHMRG” for “for GP-sHMRG”, “at 37°” for “at 25°”, “for 4” for “for 2”
(§2) • 5. Met-sHMRG as a fluorescent probe for detecting aminopeptidase activity was diluted with an assay buffer to 100 μM. The composition of the assay buffer is 100 mM HEPES-NaOH (pH 7.4), 1 mM MgCl2, 1 mM CaCl2, 1 mM DTT, 3 mM Triton X-100. • 6. Next, a human plasma sample was diluted by 500 times with the above assay buffer, and mixed in an equal amount with the diluted solution of the probe. At this time, the final concentrations of both are 50 μM for Met-sHMRG and 1,000 fold dilution for the human plasma sample. • 7. The mixed solution of both was then added to a microdevice, followed by the addition of sealing oil to enclose the solution in each well. • 8. The microdevice in which the solution was enclosed was incubated at 37° C. for 2 hours, and then the fluorescence intensity of each well was measured with a fluorescence microscope.
as §2, with “• 9. Tyr-sHMRG” for “• 5. Met-sHMRG”, “• 10.” for “• 6.”, “for Tyr-sHMRG” for “for Met-sHMRG”, “• 11.” for “• 7.”, “• 12.” for “• 8.”, “for 4” for “for 2”
• 1. Lys-sHMRG as a fluorescent probe for detecting aminopeptidase activity was diluted with an assay buffer to 100 μM. The composition of the assay buffer is 100 mM HEPES-NaOH (pH 7.4), 1 mM MgCl2, 1 mM CaCl2, 1 mM DTT, 3 mM Triton X-100. • 2. Next, a human plasma sample was diluted by 10,000 times with the above assay buffer, and mixed in an equal amount with the diluted solution of the probe. At this time, the final concentrations of both are 50 μM for Lys-sHMRG and 20,000 fold dilution for the human plasma sample. • 3. […]

[4] = human plasma 20,000 fold dilution, 37° C. for 2 hours
[5] = human plasma 1,000 fold dilution, 37° C. for 4 hours
[6] = human plasma 1,000 fold dilution, 37° C. for 2 hours

CC(=O)N[C@@H](C)C(=O)Nc1ccc2c(c1)Oc1cc(N)ccc1C21OCc2cc(S(=O)(=O)O)ccc21 (stereo partly shown) [Ac-Ala-sHMRG]
fluorescence intensity of wells in which the reacting enzyme was enclosed ([1]; human plasma 500 fold dilution, 37° C. for 4 hours): increase in fluorescence intensity was observed

CC(=O)NCC(=O)N1CCCC1C(=O)Nc1ccc2c(c1)[Si](C)(C)C1=CC(=N)C=CC1=C2c1cc(S(=O)(=O)O)ccc1C (stereo not shown) [Ac-GP-sSiR]
fluorescence intensity of wells in which the reacting enzyme was enclosed [1, 4]: increase in fluorescence intensity was observed

CC(=O)N[C@@H](CC(C)C)C(=O)N[C@H](CCCNC(=N)N)C(=O)NCC(=O)NCC(=O)Nc1ccc2c(c1)[Si](C)(C)C1=CC(=N)C=CC1=C2c1cc(S(=O)(=O)O)ccc1C [Ac-LRGG-sSiR] (Ac-L[dR]GG-X2)
fluorescence intensity of wells in which the reacting enzyme was enclosed ([2]; 50 μM probe, human plasma 20,000 fold dilution, 37° C. for 2 hours): increase in fluorescence intensity was observed

C[C@H](N)C(=O)Nc1ccc2c(c1)Oc1cc(N)ccc1C21OCc2cc(S(=O)(=O)O)ccc21 (stereo partly shown) [Ala-sHMRG]
fluorescence intensity of wells in which the reacting enzyme was enclosed [3, 5]: increase in fluorescence intensity was observed

Cc1ccc(S(=O)(=O)O)cc1C1=C2C=CC(=N)C=C2[Si](C)(C)c2cc(NC(=O)[C@@H](N)CCCNC(=N)N)ccc21 [Arg-sSiR]
fluorescence intensity of wells in which the reacting enzyme was enclosed [3, 5]: increase in fluorescence intensity was observed

Cc1ccc(S(=O)(=O)O)cc1C1=C2C=CC(=N)C=C2[Si](C)(C)c2cc(NC(=O)C3CCCN3C(=O)[C@@H](N)CCC(=O)O)ccc21 (stereo partly shown) [EP-sSiR]
fluorescence intensity of wells in which the reacting enzyme was enclosed ([2]; 30 μM probe, human plasma 5,000 fold dilution, 25° C. for 2 hours): increase in fluorescence intensity was observed

CC(C)C[C@H](N)C(=O)Nc1ccc2c(c1)Oc1cc(N)ccc1C21OCc2cc(S(=O)(=O)O)ccc21 (stereo partly shown) [Leu-sHMRG]
fluorescence intensity of wells in which the reacting enzyme was enclosed ([3]; human plasma 5,000 fold dilution, 37° C. for 4 hours): increase in fluorescence intensity was observed

NCCCC[C@H](N)C(=O)Nc1ccc2c(c1)Oc1cc(N)ccc1C21OCc2cc(S(=O)(=O)O)ccc21 (stereo partly shown) [Lys-sHMRG]
fluorescence intensity of wells in which the reacting enzyme was enclosed [3, 4]: increase in fluorescence intensity was observed

CSCC[C@H](N)C(=O)Nc1ccc2c(c1)Oc1cc(N)ccc1C21OCc2cc(S(=O)(=O)O)ccc21 (stereo partly shown) [Met-sHMRG]
fluorescence intensity of wells in which the reacting enzyme was enclosed [3, 6]: increase in fluorescence intensity was observed

C[C@H](NC(=O)CCC(=O)O)C(=O)N[C@@H](C)C(=O)N1CCC[C@@H]1C(=O)N[C@@H](C)C(=O)Nc1ccc2c(c1)Oc1cc(N)ccc1C21OCc2cc(S(=O)(=O)O)ccc21 (stereo partly shown) [Suc-AAPA-sHMRG] (Suc-AA[dP]A-X1)
fluorescence intensity of wells in which the reacting enzyme was enclosed ([2]; 100 μM probe, human plasma 500 fold dilution, 37° C. for 4 hours): increase in fluorescence intensity was observed

Cc1ccc(S(=O)(=O)O)cc1C1=C2C=CC(=N)C=C2[Si](C)(C)c2cc(NC(=O)[C@@H](N)Cc3c[nH]c4ccccc34)ccc21 [Trp-sSiR]
fluorescence intensity of wells in which the reacting enzyme was enclosed [3, 5]: increase in fluorescence intensity was observed

Nc1ccc2c(c1)Oc1cc(NC(=O)[C@@H](N)Cc3ccc(O)cc3)ccc1C21OCc2cc(S(=O)(=O)O)ccc21 (stereo partly shown) [Tyr-sHMRG]
fluorescence intensity of wells in which the reacting enzyme was enclosed [3, 5]: increase in fluorescence intensity was observed

Nc1ccc2c(c1)Oc1cc(NC(=O)CC[C@@H](N)C(=O)O)ccc1C21OCc2cc(S(=O)(=O)O)ccc21 (stereo partly shown) [gGlu-sHMRG]
fluorescence intensity of wells in which the reacting enzyme was enclosed [3, 6]: increase in fluorescence intensity was observed
